Data on 21 compounds can be found in US20190374526A1, “Substituted Heterocyclic Compounds as Inhibitors of PRDM9” (Merck Sharp & Dohme Corp., priority 2018, published 2019).

For this test, the target named is T1, hPRDM9 (amino acids 195-385) (Homo sapiens, UniProt Q9NQV7).
T1 construct: 1.25 nM hPRDM9 (amino acids 195-385)
T1 sequence (Q9NQV7 195-385): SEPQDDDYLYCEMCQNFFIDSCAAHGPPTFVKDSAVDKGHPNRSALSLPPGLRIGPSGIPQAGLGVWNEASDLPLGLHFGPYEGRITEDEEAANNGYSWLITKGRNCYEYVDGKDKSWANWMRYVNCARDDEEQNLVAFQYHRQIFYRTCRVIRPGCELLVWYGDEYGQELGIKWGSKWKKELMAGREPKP
The test can be described thus: PRDM9 biochemical assay (radiometric, 3[H] methyl transfer from SAM to biotinylated histone H3 peptide). The conditions noted are these: 1 nM hPRDM9, 1 μM biotinylated H3(1-25)K4 peptide, 5 μM 3[H]-SAM, 55 μM un-labeled SAM, 25° C., 30 minutes. Here is the method: The PRDM9 biochemical assay was carried out using a radiometric format involving the transfer of ^3[H] methyl group from S-adenosyl methionine (SAM) to a biotinylated histone H3 peptide (H3(1-25)K4). 10 mM compounds in DMSO were diluted 20 fold in assay buffer (10 mM Tris-HCl, pH 8.5, 10 mM DTT, and 0.01% Triton X-100) before adding […] to a well in a 384 well polypropylene microplate plate and adding 8 μl of reaction mix (1.25 nM hPRDM9 (amino acids 195-385), 1.25 μM biotinylated H3 peptide in assay buffer). The ^3[H]-SAM and cold SAM stock solutions were diluted to 50 μM and 550 μM respectively in assay buffer before aliquoting 1 μl of 50 μM ^3[H]-SAM, 550 μM SAM into each well to initiate the reaction. The assay was performed at 25° C. at the final concentrations of 1 nM hPRDM9, 1 μM peptide, 5 μM ^3[H]-SAM, and 55 μM un-labeled SAM in assay buffer. The reaction was quenched after 30 minutes by adding 25 μl 7.5 M Guanidine-HCl. Quenched reactions were transferred to streptavidin coated Flashplates, diluted two fold in assay buffer, incubated for 1 hour, and read on a Perkin Elmer Topcount instrument. Compound activity was expressed relative to activity of 0.5% (v/v) DMSO treated samples and fit to a four parameter logistic equation to determine IC50 values.
Regarding `Cc1cc(N2CCC3(CCN(c4nc(-c5cc(Cl)cc(Cl)c5)no4)C3)C2)ccn1` (stereo not drawn) [Compound 4], the IC50 (as a rule, the concentration that gives 50% inhibition) turned out to be 0.36 µM. With `COc1cc(OC)cc(-c2noc(N3CCN(S(C)(=O)=O)C4(CCN(c5ccnc(C)c5)CC4)C3)n2)c1` [Compound 99], the midpoint of inhibition, the IC50, lay at 0.07 µM.

`COc1cc(CN(C)C)cc(-c2noc(N3CCN(C)C4(CCN(c5ccnc(C)c5)CC4)C3)n2)c1` [Compound 244, 1-(3-methoxy-5-(5-(1-methyl-9-(2-methylpyridin-4-yl)-1,4,9-triazaspiro[5.5]undecan-4-yl)-1,2,4-oxadiazol-3-yl)phenyl)-N,N-dimethylmethanamine]: the 50% inhibitory concentration (IC50) is 0.131 µM.

The compound `Cc1cc(NCC2CN(c3nc(-c4cc(Cl)cc(Cl)c4)no3)CCC2C)ccn1` (stereo not drawn) [Compound 176] gave an IC50 of 13.6 µM. `Cc1cc(N2CCC(C)(Nc3nc(-c4cc(Cl)cc(Cl)c4)no3)C2)ccn1` (stereo not drawn) [Compound 211] displayed an IC50 of 24 µM. For `Cc1cc(N2CCC3(CC2)CN(c2nc(-c4cc(Cl)cc(Cl)c4)no2)CCO3)ccn1` [Compound 40] the value was 0.0803 µM; for `Cc1cc(NC2CCC(Nc3nc(-c4cc(Cl)cc(Cl)c4)no3)CC2)ccn1` (stereo not drawn) [Compound 54], 26.1 µM. In turn, `Cc1cc(N2CCC3(CC2)CCN(c2nc(-c4cc(Cl)cc(Cl)c4)no2)C3)ccn1` [Compound 214] showed a concentration for half-maximal inhibition (IC50) of 0.464 µM. Regarding `Cc1cc(N2CC3(CCCN(c4cc(-c5ccc(F)c(F)c5)n[nH]4)C3)C2)ccn1` [Compound 131, 6-(3-(3,4-difluorophenyl)-1H-pyrazol-5-yl)-2-(2-methylpyridin-4-yl)-2,6-diazaspiro[3.5]nonane], half-maximal inhibition (IC50) required 23.1 µM. For `Cc1cc(NC2CCC3CN(c4nc(-c5cc(Cl)cc(Cl)c5)no4)CC32)ccn1` (stereo not drawn) [Compound 178] the value was 1.15 µM. For `Cc1cc(N2CC3(CC(Nc4nc(-c5cc(Cl)cc(Cl)c5)no4)C3)C2)ccn1` [Compound 234] the value was 8.03 µM; for `Clc1cc(Cl)cc(-c2noc(N3CCCC4(CN(c5ccncc5)C4)C3)n2)c1` [Compound 203], 1 µM; for `COc1cc(OC)cc(-c2nc(N3CCCC4(CCN(c5ccnc(C)c5)CC4)C3)no2)c1` [Compound 85, 5-(3,5-dimethoxyphenyl)-3-(9-(2-methylpyridin-4-yl)-2,9-diazaspiro[5.5]undecan-2-yl)-1,2,4-oxadiazole], 0.08 µM. For `Cc1cc(NC(=O)C2CCN(c3nc(-c4cc(Cl)cc(Cl)c4)no3)CC2)ccn1` [Compound 238, 1-(3-(3,5-dichlorophenyl)-1,2,4-oxadiazol-5-yl)-N-(2-methylpyridin-4-yl)piperidine-4-carboxamide] the value was at least 50 µM; for `Cc1cc(NCC2CCCN(c3nc(-c4cc(Cl)cc(Cl)c4)no3)C2)ccn1` (stereo not drawn) [Compound 221], 5.38 µM; for `Clc1cc(Cl)cc(-c2noc(N3CCCC4(CN(c5cnccn5)C4)C3)n2)c1` [Compound 202], 2 µM. `COc1cccc(-c2noc(N3CC4CC4(CNc4ccnc(C)c4)C3)n2)c1` (stereo not drawn) [Compound 167] registered an IC50 of 23 µM. On to `Cc1cc(N2CC[C@@H]3CN(c4nc(-c5cc(Cl)cc(Cl)c5)no4)C[C@@H]3C2)ccn1` [Compound 1, 3-(3,5-dichlorophenyl)-5-((3aS,7aS)-5-(2-methylpyridin-4-yl)hexahydro-1H-pyrrolo[3,4-c]pyridin-2(3H)-yl)-1,2,4-oxadiazole], for which the IC50 was 5.16 µM.

`Cc1cc(N2CC3(CCCN(c4nc(-c5ccccc5)no4)C3)C2)ccn1` [Compound 138, 5-(2-(2-methylpyridin-4-yl)-2,6-diazaspiro[3.5]nonan-6-yl)-3-phenyl-1,2,4-oxadiazole] gave an IC50 of 4.8 µM. For `Cc1cc(NCC23CC2CN(c2nc(-c4cc(Cl)cc(Cl)c4)no2)C3)ccn1` (stereo not drawn) [Compound 168] the value was 9 µM; for `COc1cc(OC)cc(-c2noc(NCC3(O)CN(c4ccnc(C)c4)C3)n2)c1` [Compound 247, 3-(((3-(3,5-dimethoxyphenyl)-1,2,4-oxadiazol-5-yl)amino)methyl)-1-(2-methylpyridin-4-yl)azetidin-3-ol], 0.65 µM.
